From US4556713A, “6-Fluoro-5-nitroquinaldine” (Riker Laboratories, Inc., priority 1984, dated 1985)
Values after ≈ are worked out from the molar mass of the structure shown. Like-named read-outs stand apart in the source and are kept apart here.

Key:
[1] = tested on: ENTEROCOCCUS; assay: Plate dilution antimicrobial susceptibility, Enterococcus; settings: for MIC: 24 h
Experimental: (§1) Tryptone soy agar (oxoid) of the following composition is the culture medium.
(§2) A series of plates with these concentrations is prepared. Ten percent horse serum is added to one series of such plates. Aliquots of broth culture of any of twelve species of microorganisms are innoculated onto the agar plates contaning the various compound concentrations. The plates are incubated at 37° C. in a 10 percent carbon dioxide atmosphere for 18 to 24 hours. The microbial growth on each plate is read visually, and minimal inhibitory concentrations are recorded.
(§3) The tests were run both in the absence and in the presence of horse serum as described hereinabove.

[2] = tested on: Escherichia coli; assay: Plate dilution antimicrobial susceptibility, Escherichia coli; settings: for MIC: 24 h, read-out: Minimum Inhibitory Concentration
Experimental: as §1, §2, §3

[3] = tested on: Staphylococcus aureus; assay: Plate dilution antimicrobial susceptibility, Staphylococcus aureus; settings: for MIC: 24 h, read-out: Minimum Inhibitory Concentration
Experimental: as §1, §2, §3

[4] = tested on: Pseudomonas aeruginosa; assay: Plate dilution antimicrobial susceptibility, Pseudomonas aeruginosa; settings: for MIC: 24 h, read-out: Minimum Inhibitory Concentration
Experimental: as §1, §2, §3

[5] = tested on: STREP. SPECIES; assay: Plate dilution antimicrobial susceptibility, Strep. species; settings: for MIC: 24 h, read-out: Minimum Inhibitory Concentration, Strep. species; for Minimum Inhibitory Concentration: Strep. species
Experimental: as §1, §2, §3

[6] = tested on: Klebsiella pneumoniae; assay: Plate dilution antimicrobial susceptibility, Klebsiella pneumoniae; settings: for MIC: 24 h, read-out: Minimum Inhibitory Concentration
Experimental: as §1, §2, §3

[7] = tested on: gram-positive and gram-negative microorganisms; assay: Plate dilution method, antimicrobial activity in general (gram-positive and gram-negative microorganisms); assay type: cell-based; settings: in vitro
[8] = presence of 10 percent horse serum
[9] = read-out: Minimum Inhibitory Concentration, Enterococcus, absence of horse serum
[10] = read-out: Minimum Inhibitory Concentration, Enterococcus, presence of 10 percent horse serum

Compound | Minimum Inhibitory Concentration [1, 8] | Minimum Inhibitory Concentration [2, 8] | Minimum Inhibitory Concentration [3, 8] | Minimum Inhibitory Concentration [4, 8] | Minimum Inhibitory Concentration [6, 8] [mg/L] | Minimum Inhibitory Concentration ([1]; absence of horse serum) | Minimum Inhibitory Concentration ([5]; absence of horse serum) | Minimum Inhibitory Concentration [5, 8] | Minimum Inhibitory Concentration ([2]; absence of horse serum) [mg/L] | Minimum Inhibitory Concentration ([3]; absence of horse serum) | Minimum Inhibitory Concentration ([6]; absence of horse serum) [mg/L] | Minimum Inhibitory Concentration ([4]; absence of horse serum) | other results
CC1CCc2c(Br)c(F)cc3c(=O)c(C(=O)[O-])cn1c23.[Na+] (stereo not shown) [8-Br, 9-F sodium salt, sodium 8-bromo-6,7-dihydro-9-fluoro-5-methyl-1-oxo-1H,5H-benzo[ij]quinolizine-2-carboxylate] | 1 mg/L | .1 mg/L | .1 mg/L | 10 mg/L | – | – | – | – | – | – | – | – | –
CC1CCc2c(Br)c(F)cc3c(=O)c(C(=O)O)cn1c23 (stereo not shown) [8-Br, 9-F, 8-bromo-6,7-dihydro-9-fluoro-5-methyl-1-oxo-1H,5H-benzo[ij]quinolizine-2-carboxylic acid] | – | .1 mg/L | .1 mg/L | 10 mg/L | 1 | – | – | – | – | – | – | – | MIC [1, 9]: 1 µg/mL (≈ 2.94 µM); MIC [1, 10]: 1 µg/mL; MIC ([5]; absence of horse serum): 1 µg/mL (≈ 2.94 µM); MIC [5, 8]: 10 µg/mL; MIC [2]: 0.1 µg/mL (≈ 0.294 µM); MIC [3]: 0.1 µg/mL (≈ 0.294 µM); MIC [6]: 1 µg/mL (≈ 2.94 µM); MIC [4]: 10 µg/mL (≈ 29.4 µM)
Cc1cc2c(=O)c(C(=O)O)cn3c2c(c1Cl)CCC3C (stereo not shown) [8-Cl, 9-CH3] | I | 10 mg/L | 100 mg/L | I | 100 | 100 mg/L | 100 mg/L | 100 mg/L | 10 | 10 mg/L | 100 | 100 mg/L | –
CC1CCc2c(Cl)c(F)cc3c(=O)c(C(=O)[O-])cn1c23.[Na+] (stereo not shown) [8-Cl, 9-F sodium salt, sodium 8-chloro-6,7-dihydro-9-fluoro-5-methyl-1-oxo-1H,5H-benzo[ij]quinolizine-2-carboxylate] | 1 mg/L | – | – | 10 mg/L | 1 | – | – | – | – | – | – | – | –
CC1CCc2c(Cl)c(F)cc3c(=O)c(C(=O)O)cn1c23 (stereo not shown) [8-Cl, 9-F, 8-chloro-6,7-dihydro-9-fluoro-5-methyl-1-oxo-1H,5H-benzo[ij]quinolizine-2-carboxylic acid] | – | .1 mg/L | – | 10 mg/L | 1 | – | – | – | – | – | – | – | MIC [1, 9]: 1 µg/mL (≈ 3.38 µM); MIC [1, 10]: 10 µg/mL; MIC [5, 8]: 10 µg/mL; MIC [2]: 0.1 µg/mL (≈ 0.338 µM); MIC [3]: 0.1 µg/mL (≈ 0.338 µM); MIC [6]: 1 µg/mL (≈ 3.38 µM); MIC [4]: 10 µg/mL (≈ 33.8 µM)
COc1cc2c(=O)c(C(=O)O)cn3c2c(c1Cl)CCC3C (stereo not shown) [8-Cl, 9-OCH3] | 100 mg/L | 10 mg/L | 10 mg/L | I | 100 | 100 mg/L | 100 mg/L | 100 mg/L | 10 | 10 mg/L | 100 | I | –
CC1CCc2c(N)c(Cl)cc3c(=O)c(C(=O)O)cn1c23 (stereo not shown) [8-NH2,9-Cl] | I | 10 mg/L | 100 mg/L | I | 100 | I | I | I | 10 | 100 mg/L | 100 | I | –
CC(=O)Nc1c(Cl)cc2c(=O)c(C(=O)O)cn3c2c1CCC3C (stereo not shown) [8-NHCOCH3, 9-Cl] | I | 10 mg/L | I | I | 100 | I | I | I | 10 | I | 100 | I | –
CC1CCc2c(N)c(F)cc3c(=O)c(C(=O)O)cn1c23 (stereo not shown) [8-amino compound, 8-amino-6,7-dihydro-9-fluoro-5-methyl-1-oxo-1H,5H-benzo[ij]quinolizine-2-carboxylic acid] | – | – | – | – | – | – | – | – | – | – | – | – | antimicrobial activity (in words) [7]: good antimicrobial activity against many species of microorganisms
CC1CCc2c(Cl)ccc3c(=O)c(C(=O)O)cn1c23 (stereo not shown) [Example 8-Cl] | 10 mg/L | 1 mg/L | 1 mg/L | 100 mg/L | 10 | 10 mg/L | 10 mg/L | 100 mg/L | 1 | 1 mg/L | 10 | 100 mg/L | –
CC1CCc2cc(Br)cc3c(=O)c(C(=O)O)cn1c23 (stereo not shown) [Example 9-Br] | – | 10 mg/L | 100 mg/L | I | – | – | 100 mg/L | 100 mg/L | 10 | 100 mg/L | – | I | –
CC1CCc2cc(Cl)cc3c(=O)c(C(=O)O)cn1c23 (stereo not shown) [Example 9-Cl] | – | 1 mg/L | 10 mg/L | I | – | – | 100 mg/L | 100 mg/L | 1 | 10 mg/L | – | I | –
CC1CCc2cc(F)cc3c(=O)c(C(=O)O)cn1c23 (stereo not shown) [Example 9-F] | 100 mg/L | 1 mg/L | 10 mg/L | 100 mg/L | 1 | 100 mg/L | 100 mg/L | 100 mg/L | 1 | 10 mg/L | 1 | 100 mg/L | –
